Assays:
L1210 tumor cells = experiment: Survival of BDF1 mice inoculated with 1×10^6 L1210 cells, cis-platin with and without methionine-enkephalin; format: in vivo, mouse
Experimental: In order to test for any synergistic effect of using an endogenous enkephalin with a known chemo-therapeutic agent, a study involving the inoculation of groups of mice with massive doses (1×10^6) of L1210 tumor cells was performed in a manner analogous to the previous examples transferred in RPMI 1640 at pH 7.

[1] = test system: phenylalanyl-t RNA synthetase; conditions: Laidow et al, J.B.C. 255 (1980); cited from earlier work

Compound: N.N.[Cl][Pt][Cl] [Cis-platin, cis-platin]
- Median Day of Death ED50 (L1210 tumor cells; 1×10^6 cells, cis-platin 2 mg/Kg, Met-enkephalin 30 mg/Kg s.c.): 10 days
- dead/tested, cumulative (L1210 tumor cells; 1×10^6 cells, cis-platin 2 mg/Kg, Met-enkephalin 30 mg/Kg s.c., day 9): 3/20
- Median Day of Death ED50 (L1210 tumor cells; 1×10^6 cells, cis-platin 4 mg/Kg, Met-enkephalin 30 mg/Kg s.c.): 10 days
- dead/tested, cumulative (L1210 tumor cells; 1×10^6 cells, cis-platin 8 mg/Kg single dose, Met-enkephalin 30 mg/Kg s.c., day 9): 2/20
- Median Day of Death ED50 (L1210 tumor cells; 1×10^6 cells, cis-platin 8 mg/Kg, Met-enkephalin 30 mg/Kg s.c.): 12 days
- dead/tested, cumulative (L1210 tumor cells; cis-platin 2 mg/Kg, Met-enkephalin 30 mg/Kg s.c., day 10): 13/20
- dead/tested, cumulative (L1210 tumor cells; cis-platin 2 mg/Kg, Met-enkephalin 30 mg/Kg s.c., day 11): 14/20
- dead/tested, cumulative (L1210 tumor cells; cis-platin 2 mg/Kg, Met-enkephalin 30 mg/Kg s.c., day 12): 15/20
- dead/tested, cumulative (L1210 tumor cells; cis-platin 2 mg/Kg, Met-enkephalin 30 mg/Kg s.c., day 13): 17/20
- dead/tested, cumulative (L1210 tumor cells; cis-platin 2 mg/Kg, Met-enkephalin 30 mg/Kg s.c., day 14): 19/20
- dead/tested, cumulative (L1210 tumor cells; cis-platin 4 mg/Kg, Met-enkephalin 30 mg/Kg s.c., day 11): 10/20
- dead/tested, cumulative (L1210 tumor cells; cis-platin 4 mg/Kg, Met-enkephalin 30 mg/Kg s.c., day 12): 15/20
- dead/tested, cumulative (L1210 tumor cells; cis-platin 4 mg/Kg, Met-enkephalin 30 mg/Kg s.c., day 13): 19/20
- dead/tested, cumulative (L1210 tumor cells; cis-platin 4 mg/Kg, Met-enkephalin 30 mg/Kg s.c., day 15): 20/20
- dead/tested, cumulative (L1210 tumor cells; cis-platin 8 mg/Kg, Met-enkephalin 30 mg/Kg s.c., day 12): 4/20
- dead/tested, cumulative (L1210 tumor cells; cis-platin 8 mg/Kg, Met-enkephalin 30 mg/Kg s.c., day 13): 7/20
- dead/tested, cumulative (L1210 tumor cells; cis-platin 8 mg/Kg, Met-enkephalin 30 mg/Kg s.c., day 14): 12/20
- dead/tested, cumulative (L1210 tumor cells; cis-platin 8 mg/Kg, Met-enkephalin 30 mg/Kg s.c., day 15): 16/20
- dead/tested, cumulative (L1210 tumor cells; cis-platin 8 mg/Kg, Met-enkephalin 30 mg/Kg s.c., day 16): 18/20
- dead/tested, cumulative (L1210 tumor cells; cis-platin 8 mg/Kg, day 18): 19/20
- dead/tested, cumulative (L1210 tumor cells; cis-platin 8 mg/Kg, day 20): 20/20

Compound: beta-endorphin
- effect on phenylalanyl-t RNA synthetase [1]: inhibit

Reference: US4757049A, “Process for using endogenous enkephalins and endorphins to stimulate the immune system of patients with aids” (TNI Pharmaceuticals, Inc., priority 1986, dated 1988)
